Assay results reported in patent publication US20230293535A1, “ERBB/BTK INHIBITORS” (Dizal (Jiangsu) Pharmaceutical Co., Ltd., priority 2018, published 2023).
Marks after values point to notes of the source that are not given here.

Tests used:
[1] = In vitro rat hepatocytes clearance assay; conditions: male, rat, cryopreserved rat hepatocytes (suspension), rat hepatocytes Clint (µL/min/10^6cells), 1 µM-range incubation up to 100 min
OCI-LY-10 cells = assay: BTK (wt) cell proliferation, OCI-LY-10 (CellTiter-Glo, 72 h); format: cell-based; conditions: Homo sapiens, OCI-Ly10, 72 h, OCI-LY-10 cells, 72 h, CellTiter-Glo; read-out: BTK WT OCI-LY-10 GI50;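 also: viable cells quantified via cellular ATP luminescence, proliferation given as percent of DMSO control after subtracting a duplicate plate read at time of dosing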
Ri-1 cells = assay: BTK (wt) cell proliferation, Ri-1 (CellTiter-Glo, 72 h); format: cell-based; conditions: Ri-1, 72 h, Ri-1 cells, 72 h, CellTiter-Glo; read-out: BTK WT Ri-1 GI50;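 also: viable cells quantified as cellular ATP luminescence, proliferation normalized to a time-zero plate and the DMSO control, compounds tested across a dilution series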
[2] = test system: NSCLC with EGFR Exon20ins; assay: Anti-tumor activity in platinum-pretreated NSCLC patients with EGFR Exon20 insertion mutations; format: in vivo, human
Source text: Compound 52 is a rationally designed, oral, EGFR Exon20 insertion (Exon20ins) inhibitor, with wild-type EGFR selectivity. […] Compound 52 is currently in late stage development with multiple pivotal studies ongoing globally as ≥ 2nd line treatment after platinum-containing chemotherapies and 1st line for treatment naive patients. Results from multicenter, multi-arm, global studies are presented herein.
A total of 119 evaluable platinum-pretreated NSCLC patients with EGFR Exon20ins were included in efficacy set.

[3] = molecular target: T1, human EGFR exon 20 H773_V774insNPH (Homo sapiens, UniProt P00533, INS773NPH); assay: EGFR Exon20 NPH insertion cellular phosphorylation inhibition (MSD pEGFR Y1068/total EGFR); format: cell-based; conditions: Ba/F3 EGFR NPH ins cells, 4 h compound, p-EGFR(Y1068)/total EGFR;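 also: IL3-independent Ba/F3 cells with constitutively phosphorylated EGFR, compound exposure at 37 °C under 5% CO2, electrochemiluminescent MSD measurement of the p-EGFR to total EGFR ratio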
T1 construct: host or cells: Ba/F3
T1 sequence (P00533 with tags, fused parts or gaps INS773NPH): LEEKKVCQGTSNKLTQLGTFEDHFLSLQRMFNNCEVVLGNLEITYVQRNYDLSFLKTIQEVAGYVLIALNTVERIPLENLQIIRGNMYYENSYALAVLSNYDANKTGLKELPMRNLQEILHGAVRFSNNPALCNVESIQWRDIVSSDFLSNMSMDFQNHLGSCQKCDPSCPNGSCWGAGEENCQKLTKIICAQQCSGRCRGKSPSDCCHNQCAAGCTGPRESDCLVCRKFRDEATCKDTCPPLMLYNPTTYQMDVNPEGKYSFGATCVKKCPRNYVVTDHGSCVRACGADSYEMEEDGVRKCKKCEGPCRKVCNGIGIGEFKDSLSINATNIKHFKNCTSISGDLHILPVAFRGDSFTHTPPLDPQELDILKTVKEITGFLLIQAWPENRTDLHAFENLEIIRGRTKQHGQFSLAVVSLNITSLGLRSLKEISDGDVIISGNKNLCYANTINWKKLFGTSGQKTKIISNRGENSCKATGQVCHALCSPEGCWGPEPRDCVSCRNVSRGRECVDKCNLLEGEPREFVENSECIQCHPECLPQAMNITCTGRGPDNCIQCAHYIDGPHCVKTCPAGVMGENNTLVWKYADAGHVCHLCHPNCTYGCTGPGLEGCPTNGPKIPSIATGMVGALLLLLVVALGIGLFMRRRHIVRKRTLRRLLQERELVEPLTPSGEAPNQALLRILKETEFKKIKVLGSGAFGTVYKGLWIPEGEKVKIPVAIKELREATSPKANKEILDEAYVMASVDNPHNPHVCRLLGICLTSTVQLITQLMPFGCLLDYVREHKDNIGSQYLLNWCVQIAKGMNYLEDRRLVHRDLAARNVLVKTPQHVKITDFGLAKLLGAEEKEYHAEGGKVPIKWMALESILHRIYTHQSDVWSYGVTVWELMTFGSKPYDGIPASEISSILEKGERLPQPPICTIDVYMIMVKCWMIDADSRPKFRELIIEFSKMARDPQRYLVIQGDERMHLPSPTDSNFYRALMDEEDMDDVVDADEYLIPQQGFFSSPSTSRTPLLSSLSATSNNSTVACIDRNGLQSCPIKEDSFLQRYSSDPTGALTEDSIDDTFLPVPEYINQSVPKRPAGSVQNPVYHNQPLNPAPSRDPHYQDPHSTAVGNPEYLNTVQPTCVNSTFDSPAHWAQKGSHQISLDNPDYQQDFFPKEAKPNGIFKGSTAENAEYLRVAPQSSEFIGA
Method: One day before the test, WT or mutant cells were seeded in 96 well plates at appropriate concentrations with corresponding growth media supplemented with 1% FBS, and incubated overnight. The next day, tested compounds at a series of concentrations were added into each individual well of the plates, and the plates were incubated for 4 h at 37° C. with 5% CO2.
The EGFR (Y1068) phosphorylation level (activity) of cells in each well were then measured with MSD kit named “MULTI-SPOT®96 4-Spot HB Prototype EGFR Triplex [sequence]: pEGFR(Tyr1068),pEGFR(Tyr1173), Total EGFR” according to the manufacturer’s instruction (MESO SCALE DISCOVERY, Cat# N45ZB-1). The assay is an electrochemiluminescent method for determining both phosphorylated and total EGFR of cells with an MSD SECTOR® Imager and the ratio of p-EGFR/total EGFR can be generated by the machine.

DB cells = assay: BTK (wt) cell proliferation, DB (CellTiter-Glo, 72 h); format: cell-based; conditions: Homo sapiens, DB, DB cells, CellTiter-Glo, read-out: Non-BCR activated DB GI50;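 also: DB cells in 384-well plates given a dilution series of compound, viable cells read by ATP luminescence, growth expressed versus DMSO control after subtracting a time-zero plate reading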
Ba/F3 EGFR NPH ins cells = assay: Cell proliferation, Ba/F3 EGFR NPH ins (CellTiter-Glo, 72 h); format: cell-based; conditions: Ba/F3 EGFR, 72 h, Ba/F3 EGFR NPH ins, 72 h proliferation; read-out: EGFR Exon20 NPH insertion GI50;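 also: IL3-independent cells carrying constitutively phosphorylated EGFR, compound dilution series, viable cells quantified by ATP luminescence, growth relative to DMSO wells after subtracting pre-dosing (day 0) baseline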
[4] = 50 mg (N = 3), post platinum-based chemotherapy
[5] = 100 mg (N = 2), post platinum-based chemotherapy
[6] = 200 mg (N = 21), post platinum-based chemotherapy
[7] = 300 mg (N = 84), post platinum-based chemotherapy
[8] = 400 mg (N = 9), post platinum-based chemotherapy
[9] = Total (N = 119), post platinum-based chemotherapy

SMILES: C=CC(=O)Nc1cc(Nc2nccc(Nc3cc(Cl)c(F)cc3C(C)(C)O)n2)c(OC)cc1N1CC[C@@H](N(C)C)C1 [Compound 52, (R)-N-(5-(4-(5-chloro-4-fluoro-2-(2-hydroxypropan-2-yl)phenylamino)pyrimidin-2-ylamino)-2-(3-(dimethylamino)pyrrolidin-1-yl)-4-methoxyphenyl)a crylamide]
- hepatocyte CLint at 1 µM [1]: 13.3 µL/min/1e6 cells
- GI50 (OCI-LY-10 cells): 3.2 nM
- GI50 (Ri-1 cells): 51.3 nM
- Best Objective Response Rate, PD (progressive disease) [2, 4]: 1 (33.3) n(%)
- Best Objective Response Rate, PR [2, 4]: 0 (0.0) n(%)
- Best Objective Response Rate, PR, confirmed [2, 4]: 0 (0.0) n(%)
- Best Objective Response Rate, PR, pending confirmation [2, 4]: 0 (0.0) n(%)
- Best Objective Response Rate, SD (stable disease) [2, 4]: 2 (66.7) n(%)
- Best Objective Response Rate, PD (progressive disease) [2, 5]: 0 (0.0) n(%)
- Best Objective Response Rate, PR [2, 5]: 1 (50.0) n(%)
- Best Objective Response Rate, PR, confirmed [2, 5]: 1 (50.0) n(%)
- Best Objective Response Rate, PR, pending confirmation [2, 5]: 0 (0.0) n(%)
- Best Objective Response Rate, SD (stable disease) [2, 5]: 1 (50.0) n(%)
- Best Objective Response Rate, PD (progressive disease) [2, 6]: 3 (14.3) n(%)
- Best Objective Response Rate, PR [2, 6]: 10 (47.6) n(%)
- Best Objective Response Rate, PR, confirmed [2, 6]: 7 (33.3) n(%)
- Best Objective Response Rate, PR, pending confirmation [2, 6]: 2 (9.5)* n(%)
- Best Objective Response Rate, SD (stable disease) [2, 6]: 9 (42.9) n(%)
- Best Objective Response Rate, PD (progressive disease) [2, 7]: 9 (10.7) n(%)
- Best Objective Response Rate, PR, confirmed [2, 7]: 32 (38.1) n(%)
- Best Objective Response Rate, PR, pending confirmation [2, 7]: 8 (9.5)* n(%)
- Best Objective Response Rate, SD (stable disease) [2, 7]: 35 (41.7) n(%)
- best Overall Response Rate (ORR) ([2]; 300 mg once daily, 44/84 patients, post platinum-based chemotherapy): 52.4%
- Best Objective Response Rate, PD (progressive disease) [2, 8]: 2 (22.2) n(%)
- Best Objective Response Rate, PR [2, 8]: 2 (22.2) n(%)
- Best Objective Response Rate, PR, confirmed [2, 8]: 2 (22.2) n(%)
- Best Objective Response Rate, PR, pending confirmation [2, 8]: 0 (0.0) n(%)
- Best Objective Response Rate, SD (stable disease) [2, 8]: 5 (55.6) n(%)
- Best Objective Response Rate, PD (progressive disease) [2, 9]: 15 (12.6) n(%)
- Best Objective Response Rate, PR [2, 9]: 57 (47.9) n(%)
- Best Objective Response Rate, PR, confirmed [2, 9]: 42 (35.3) n(%)
- Best Objective Response Rate, PR, pending confirmation [2, 9]: 10 (8.4)* n(%)
- Best Objective Response Rate, SD (stable disease) [2, 9]: 52 (43.7) n(%)
- ORR for patients with baseline brain metastasis ([2]; across studies, 11/25 patients): 44%
- first response observed after treatment ([2]; single patient, stage IV NSCLC with CNS metastasis, 300 mg once daily): 6 weeks
- IC50 [3]: 20.4 nM
- GI50 (DB cells): 1980 nM
- GI50 (Ba/F3 EGFR NPH ins cells): 60.4 nM
